Key:
Prothrombin = Prothrombin (Homo sapiens, UniProt P00734); test: The compound was tested in vitro for inhibitory activity against Coagulation factor II
Coagulation factor X [1] = target: T1, Coagulation factor X (Homo sapiens, UniProt P00742); test: The compound was tested in vitro for inhibitory activity against Coagulation factor X; Inactive
Serine protease 1 = Serine protease 1 (Homo sapiens, UniProt P07477); test: The compound was tested in vitro for inhibitory activity against human trypsin
Serine protease 1, sequence (P07477 whole entry): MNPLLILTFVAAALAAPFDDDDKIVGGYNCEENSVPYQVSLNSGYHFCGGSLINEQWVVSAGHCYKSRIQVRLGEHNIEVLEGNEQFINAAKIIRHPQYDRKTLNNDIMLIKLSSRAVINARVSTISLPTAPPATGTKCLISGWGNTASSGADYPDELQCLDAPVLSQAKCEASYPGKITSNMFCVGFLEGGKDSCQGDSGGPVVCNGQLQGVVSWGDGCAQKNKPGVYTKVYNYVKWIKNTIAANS

Coagulation factor X [2] = target: T1, Coagulation factor X; test: The compound was tested in vitro for inhibitory activity against Coagulation factor X; inactive
Coagulation factor X [3] = target: T1, Coagulation factor X; test: The compound was tested in vitro for inhibitory activity against Coagulation factor X

T1 sequence (P00742 41-179 limits assumed): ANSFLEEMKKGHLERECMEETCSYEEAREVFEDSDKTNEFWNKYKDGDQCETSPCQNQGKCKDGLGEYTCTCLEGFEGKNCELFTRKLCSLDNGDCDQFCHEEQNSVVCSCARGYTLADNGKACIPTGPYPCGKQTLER
T1 sequence (P00742 235-488 limits assumed): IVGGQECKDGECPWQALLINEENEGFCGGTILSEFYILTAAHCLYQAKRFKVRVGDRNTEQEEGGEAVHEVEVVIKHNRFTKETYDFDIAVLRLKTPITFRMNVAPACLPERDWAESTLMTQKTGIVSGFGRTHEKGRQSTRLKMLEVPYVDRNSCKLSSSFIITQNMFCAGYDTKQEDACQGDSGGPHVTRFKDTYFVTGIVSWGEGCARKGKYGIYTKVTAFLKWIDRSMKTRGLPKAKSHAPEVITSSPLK

## N=C(N)N1CCC[C@H](NC(=O)CN2CCC[C@@](N)(Cc3ccccc3)C2=O)C1O.O=C(O)C(F)(F)F (some centres undefined)
Prothrombin
  IC50: 2.07 nM
Coagulation factor X [1]
  IC50: Not Active
Serine protease 1
  IC50: 139 nM

## N=C(N)N1CCC[C@H](NC(=O)CN2CCC[C@](N)(Cc3ccccc3)C2=O)C1O.O=C(O)C(F)(F)F (some centres undefined)
Coagulation factor X [2]
  IC50: Not Active
Prothrombin
  IC50: 138 nM
Serine protease 1
  IC50: 2500 nM

## N=C(N)N1CCC[C@H](NC(=O)CN2CCC[C@H](NS(=O)(=O)Cc3ccccc3)C2=O)C1O (some centres undefined)
Coagulation factor X [3]
  IC50: > 2500 nM
Serine protease 1
  IC50: 1270 nM

## N=C(N)N1CCC[C@H](NC(=O)CN2CCC(NS(=O)(=O)Cc3ccccc3)C2=O)C1O (some centres undefined)
Prothrombin
  IC50: 125 nM
Coagulation factor X [3]
  IC50: > 2500 nM
Serine protease 1
  IC50: 538 nM

## N=C(N)N1CCC[C@H](NC(=O)CN2CCCC[C@@](N)(Cc3ccccc3)C2=O)C1O (some centres undefined)
Prothrombin
  IC50: 14.9 nM
Coagulation factor X [3]
  IC50: > 2500 nM
Serine protease 1
  IC50: 969 nM

## COC(=O)NC1(Cc2ccccc2)CCCCN(CC(=O)N[C@H]2CCCN(C(=N)N)C2O)C1=O (some centres undefined)
Prothrombin
  IC50: 466 nM
Coagulation factor X [3]
  IC50: 2500 nM
Serine protease 1
  IC50: 2500 nM

## N=C(N)N1CCC[C@H](NC(=O)CN2CCCC[C@](N)(Cc3ccccc3)C2=O)C1O.O=C(O)C(F)(F)F (some centres undefined)
Prothrombin
  IC50: 193 nM
Coagulation factor X [1]
  IC50: Not Active
Serine protease 1
  IC50: 2500 nM

## N=C(N)N1CCC[C@H](NC(=O)CN2CCCC[C@H](NS(=O)(=O)Cc3ccccc3)C2=O)C1O (some centres undefined)
Prothrombin
  IC50: 0.71 nM
Coagulation factor X [3]
  IC50: 22.8 nM
Serine protease 1
  IC50: 152 nM

## N=C(N)N1CCC[C@H](NC(=O)CN2CC[C@@](N)(Cc3ccccc3)C2=O)C1O (some centres undefined)
Prothrombin
  IC50: 1380 nM
Coagulation factor X [3]
  IC50: 2500 nM
Serine protease 1
  IC50: 1380 nM

## CS(=O)(=O)NC1(Cc2ccccc2)CCCN(CC(=O)N[C@H]2CCCN(C(=N)N)C2O)C1=O (some centres undefined)
Prothrombin
  IC50: 31.9 nM
Coagulation factor X [3]
  IC50: > 2500 nM
Serine protease 1
  IC50: 52.2 nM
